Results on 132 compounds are retold here after the OPERA property sets (Mansouri et al. 2018).

One may read the logP as a log measure of how a compound divides between an organic and an aqueous phase. Low readings indicate a more hydrophilic compound, high ones a more lipophilic compound.

Peptide text beside a SMILES is read from it.

Consider `O=C(O)[C@@H]1CCCN1`, for which the logP is -2.54.

Regarding `O=c1c2ccccc2sc2ccccc12`, the logP came out at 3.99.

As for `O=C(Nc1ccccc1)NC1CCCCC1`, the logP came out at 2.77.

The compound `CC1(C)Cc2cccc(O)c2O1` yielded a log partition coefficient (logP) of 2.08.

`CCCCNc1ccccc1OC` had a log partition coefficient (logP) of 2.85.

In turn, `Nc1ccc(C2CCCCC2)cc1` showed a lipophilicity (logP) of 3.65.

On to `NC(=O)c1ccsc1`, for which the logP stood at 0.5.

Compound `O=C(CN1CCCCC1)Nc1ccc(I)cc1` showed a lipophilicity (logP) of 3.9.

The compound `CNC1=C(N2CC2)C(=O)C(NC)=C(N2CC2)C1=O` showed a logP of 0.13.

Compound `CCOC(=O)Oc1cccc2cccnc12` came in with a log partition coefficient (logP) of 1.73.

The compound `COC(=O)c1ccsc1` yielded a log partition coefficient (logP) of 1.76.

Compound `C=C1C(=O)OC2CC(C)C3CC(=O)C(CC12)C1(C3)C(=O)OC2CC(C)C3C=CC(=O)C3C(C)(O)C21` (configuration not stated) had a lipophilicity (logP) of 1.66. The logP values of the last two compounds are within 0.2 log units of each other.

`CN(CC(F)(F)F)N=Nc1ccc(C(N)=O)cc1`: the logP turned out to be 1.86.

`NNC(=O)c1ccccc1Cl` yielded a logP of 0.14.

`COC(=O)CCCCCC(=O)OC` came in with a logP of 1.38.

On to `CC1=NS(=O)(=O)c2ccc(C(F)(F)F)cc2N1`, for which the logP was found to be 1.59.

Consider `O=Cc1ccc[nH]1`, for which the lipophilicity (logP) came to 0.64.

In turn, `N#Cc1c2ccccc2cc2ccccc12` returned a logP of 4.26.

`O=C(O)Cc1cccc(I)c1` showed a logP of 2.62.

As for `CC(Cl)C(=O)NC(CO)C(O)c1ccc([N+](=O)[O-])cc1` (configuration not stated), the logP was found to be 0.98.

In the case of `NC1C2CCC1c1ccccc12` (configuration not stated), the logP was 2.13.

The compound `OCCc1cccnc1` displayed a logP of 0.12.

Take `CCCCCCc1ccc(C(=O)OCCN(C)C)cc1`: the logP worked out at 5.2.

`CN1CC[C@]23c4c5ccc(O)c4O[C@H]2C(=O)CC[C@@]3(O)[C@H]1C5`: the lipophilicity (logP) stood at 0.83.

For `Clc1cccnc1`, the logP was 1.33.

With `CC(C)(C)CO`, the lipophilicity (logP) stood at 1.31.

As to `CN(C)O`, the logP was -1.15.

`CCC(=O)O[C@]1(c2ccccc2)CCN(C)C[C@@H]1C` showed a log partition coefficient (logP) of 2.83.

For the compound `CCCNC(C)CC` (configuration not stated), the logP is 1.91.

As to `CC(O)CNCC(C)O` (configuration not stated), the logP was -0.82.

`COC1CC(OC2CCC3(C)C(CCC4C3CCC3(C)C(C5=CC(=O)OC5)C(OC(C)=O)CC43O)C2)OC(C)C1OC(C)=O` (configuration not stated) showed a logP of 2.95.

Compound `O=C(O)Cc1cccc(C(=O)O)c1` came in with a logP of 1.14.

The compound `COc1cccc(OC)c1C(=O)N[C@@H]1C(=O)N2[C@@H]1SC(C)(C)[C@@H]2C(=O)O` showed a lipophilicity (logP) of 1.22.

As to `O=C(C=Cc1ccco1)c1ccco1`, the log partition coefficient (logP) came to 2.34.

As for `NC(=O)c1ncn2c(=O)n(CCCl)nnc12`, the lipophilicity (logP) was -0.47.

`COc1ccccc1N(C)C`: the logP stood at 1.63.

In turn, `Nc1ccc(Cl)cc1C(=O)O` yielded a logP of 1.57.

On to `CCCCCCCCCCCCOS(=O)(=O)[O-].[Na+]`, for which the lipophilicity (logP) stood at 1.6. This logP and that of the compound before are within 0.2 log units of each other.

Turning to `CC(=O)c1cccc([N+](=O)[O-])c1`, the logP amounted to 1.42. The logP values of the last two compounds are within 0.2 log units of each other.

`CCCCCCCCn1cc(C)c(=O)[nH]c1=O` came in with a logP of 3.08.

Consider `Cc1ccc([N+](=O)[O-])cn1`, for which the log partition coefficient (logP) is 0.99.

`CCCCOC(=O)NCC(C)c1ncc([N+](=O)[O-])[nH]1` (configuration not stated) yielded a lipophilicity (logP) of 1.22.

Consider `c1ccc2c(c1)ccc1ccccc12`, for which the logP is 4.46.

As for `CCCOC`, the logP turned out to be 1.21.

Take `CN(C)c1cccc(O)c1`: the lipophilicity (logP) was found to be 1.56.

Turning to `COC(=O)Cc1ccsc1`, the logP was 1.46.

In turn, `Nc1ccc2c(n1)[nH]c1ccccc12` registered a logP of 2.6.

For `Cc1ccc2nc(N)[nH]c2c1`, the logP is 1.11.

For `c1ccc2c(c1)nnc1ccccc12`, the lipophilicity (logP) is 2.4.

The compound `N#Cc1ccco1` registered a logP of 0.96.

`CC(O)C(C)O` (configuration not stated): the logP was -0.92.

On to `COC(=O)C(C)N(C(=O)Cc1ccccc1)c1c(C)cccc1C` (configuration not stated), for which the lipophilicity (logP) came to 3.4.

For the compound `c1ccc(-c2nc3ccccc3s2)cc1`, the logP was 4.26.

In turn, `CCCCNC(=O)NS(=O)(=O)c1ccc(Cl)cc1` showed a logP of 2.81.

The compound `NS(=O)(=O)c1ccc2c(c1)S(=O)(=O)NC(CC1CCCC1)N2` (configuration not stated) returned a logP of 1.24.

For `Cc1cscn1`, the logP was determined as 0.97.

`CNC(=O)Oc1cccc(C(C)C)c1` yielded a lipophilicity (logP) of 2.63.

With `O=[N+]([O-])c1ccc(Cl)c(Cl)c1Cl`, the log partition coefficient (logP) was determined as 3.61.

In the case of `CSc1cccc(N)c1`, the log partition coefficient (logP) was found to be 1.45.

As for `CC(C)(C)C#N`, the logP amounted to 1.08.

Compound `O=C(CN1CCCCC1)Nc1cccc([N+](=O)[O-])c1` showed a logP of 2.59.

Consider `Cc1[nH]cnc1CSCCNC(=N)NCCSCc1nc[nH]c1C`, for which the logP was found to be 1.34.

As to `C(=Cc1ccccn1)c1ccccn1`, the logP was found to be 2.11.

Compound `CC(=O)c1ccnc2cc(Cl)ccc12` yielded a log partition coefficient (logP) of 2.62.

In turn, `CCOC(=O)C(F)F` displayed a logP of 0.87.

With `COc1noc2c1CNCC2`, the logP was -0.04.

`COc1cc(S(C)=O)ccc1-c1nc2nccnc2[nH]1` (configuration not stated) came in with a logP of 0.66.

The compound `COCCOc1ccccc1` returned a logP of 1.73.

As to `COCc1ccc(C(=O)O)cc1`, the logP is 1.76.

`O=C1CC(Sc2ccccn2)N1` (configuration not stated): the logP amounted to 0.61.

Compound `Clc1cc2oc3c(Cl)c(Cl)ccc3c2c(Cl)c1Cl` registered a logP of 6.26.

Regarding `Clc1cc(Cl)c(-c2ccccc2)c(Cl)c1`, the logP was 5.47.

The compound `Nc1ccc(S(=O)(=O)c2ccc(F)cc2)cc1` yielded a lipophilicity (logP) of 2.17.

`O=C(NP(=O)(N1CC1)N1CC1)c1ccccc1I`: the logP is 1.05.

`CC(=O)CCC(C)=O`: the log partition coefficient (logP) is -0.27.

Compound `Nc1nc(N)nc(-c2cccc([N+](=O)[O-])c2)n1` returned a lipophilicity (logP) of 1.57.

`Nc1ccc2nccnc2c1`: the log partition coefficient (logP) came to 0.9.

For `CCOC(=O)[C@H](O)[C@@H](O)C(=O)OCC`, the logP was -0.29.

In turn, `COC1C(O)C(C)OC(OC2CCC3(C)C(CCC4C3CCC3(C)C(C5=CC(=O)OC5)CCC43O)C2)C1O` (configuration not stated) registered a logP of 2.1.

In turn, `N#Cc1ccc([N+](=O)[O-])cc1` gave a lipophilicity (logP) of 1.19.

The compound `C=CCNCC=C` registered a logP of 1.11.

Take `O=c1nccc[nH]1`: the lipophilicity (logP) was -1.62.

`Cn1cccn1` showed a log partition coefficient (logP) of 0.23.

For `O=[N+]([O-])c1cc[n+]([O-])cc1`, the lipophilicity (logP) was -0.55.

For the compound `CC(=O)Oc1ccc([N+](=O)[O-])cc1`, the log partition coefficient (logP) was determined as 1.5.

Take `COc1cc(NC(=O)NC(=N)N)ccc1C#N`: the logP worked out at 1.28.

Compound `CNC(=O)Oc1ccccc1[N+](=O)[O-]` had a lipophilicity (logP) of 1.02.

Take `O=C1CNC(=O)N1`: the logP was -1.69.

As for `CC(Oc1ccc(Cl)cc1)C(=O)O` (configuration not stated), the lipophilicity (logP) turned out to be 2.31.

For the compound `O=C(CCNNC(=O)c1ccncc1)NCc1ccccc1`, the logP came to 0.87.

`S=C=NCCc1ccccc1` had a logP of 3.47.

In turn, `CC1=C(N2CC2)C(=O)C(CCOC(N)=O)=C(N2CC2)C1=O` showed a log partition coefficient (logP) of 0.16.

Regarding `COc1cc([C@@H]2c3cc4c(cc3C(O[C@@H]3O[C@@H]5COC(c6cccs6)O[C@H]5[C@H](O)[C@H]3O)C3COC(=O)[C@@H]32)OCO4)cc(OC)c1O` (some centres not stated), the logP stood at 1.24.

Compound `O=C(O)COc1ccc(S(=O)(=O)F)cc1` registered a lipophilicity (logP) of 1.82.

For the compound `O=[N+]([O-])c1ccc(-c2ccccc2)cc1`, the logP stood at 3.82.

Regarding `C=C1C(=O)OC2CC(C)C3C=CC(=O)C3(C)C(O)C12` (configuration not stated), the logP came out at 0.36.

`Cn1nnc2ccccc2c1=O` yielded a logP of 0.84.

In turn, `NC(=O)C(Cc1ccccc1)NC(=O)C(N)Cc1ccccc1` (configuration not stated) came in with a log partition coefficient (logP) of 1.13.

`CCNc1nc(NC(C)C)nc(SC(F)F)n1` yielded a logP of 3.7.

`O=CNc1cccc(Cl)c1` displayed a logP of 1.9.

As to `COC(=O)c1ccccn1`, the log partition coefficient (logP) worked out at 0.36.

In turn, `CN(C)C(N(C)C)=S(I)c1ccc(Cl)c(Cl)c1` (configuration not stated) yielded a logP of 0.49.

Consider `CS(=O)(=O)ON1C(=O)c2ccc([N+](=O)[O-])cc2C1=O`, for which the logP is 1.71.

As for `CN(C)CC(O)c1ccccc1` (configuration not stated), the logP was 1.54.

In turn, `CC(C)(c1ccc(O)cc1)c1ccc(O)cc1` came in with a logP of 3.32.

`Cn1c(=O)sc2ccccc21` yielded a logP of 1.98.

The compound `N#Cc1ccc(C(O)C(CO)NC(=O)C(Cl)Cl)cc1` (configuration not stated) returned a logP of 0.78.

`CNC(=O)Oc1cc(C)c(Cl)cc1Cl` yielded a lipophilicity (logP) of 3.

For the compound `CCCCCOC(=O)NC`, the logP came out at 1.96.

As for `OCC(Cl)(Cl)Cl`, the logP was 1.42.

Take `Cn1ccc2ccccc21`: the log partition coefficient (logP) stood at 2.72.

`Nc1cccc([N+](=O)[O-])c1` registered a logP of 1.37.

Turning to `Nc1nc(N)c2nc(-c3ccccc3)c(N)nc2n1`, the lipophilicity (logP) turned out to be 0.98.

`NC(=O)N(CCCCCCN(N=O)C(N)=O)N=O` registered a logP of 0.58.

`CN(c1ccccn1)S(=O)(=O)c1ccc(N)cc1` came in with a logP of 1.3.

Compound `Cc1cccc(OC(=O)CNC(=O)c2ccccc2)c1` displayed a log partition coefficient (logP) of 2.72.

`CN(C)CCOC(=O)c1ccc(C#N)cc1` came in with a lipophilicity (logP) of 1.43.

As for `CC[C@H](C)[C@H](NC(=O)[C@H](Cc1c[nH]c2ccccc12)NC(C)=O)C(=O)NCC(N)=O` (Ac-Trp-Ile-Gly-NH2), the logP is 0.62.

The compound `O=C1C=CCCC1` displayed a logP of 0.61.

Regarding `COP(=O)(OC)Oc1ccc([N+](=O)[O-])c(C(C)C)c1`, the logP came out at 2.57.

With `O=C1Cc2ccccc2N1`, the logP is 1.16.

For the compound `NCCCN1CCN(CCCN)CC1`, the logP was -1.43.

For `c1ccc2[nH]ncc2c1`, the logP is 1.77.

`O=C(O)CCCc1ccccc1` had a lipophilicity (logP) of 2.42.

As for `COc1ccccc1[N+](=O)[O-]`, the logP came to 1.73.

With `Oc1c(Br)cc(Br)c(O)c1Br`, the logP was 4.37.

`COC(=O)CCC(=O)OCC(=O)C1(O)CCC2C3CCC4=CC(=O)CCC4(C)C3C(O)CC21C` (configuration not stated): the logP was 2.6.

The compound `c1cnn(C23CC4CC(CC(C4)C2)C3)c1` yielded a logP of 3.05.

Compound `CC1=C(C)C(=O)C(C)=C(C)C1=O` yielded a logP of 2.23.

Turning to `CC(=O)N[C@@H](C)C(=O)N[C@@H](CC(C)C)C(=O)N[C@H](C(N)=O)C(C)C` (Ac-Ala-Leu-Val-NH2), the logP was -0.14.

With `O=NN1CCC(Br)C(Br)C1` (configuration not stated), the logP stood at 1.23.

`CC(=O)Nc1cccc(OCc2cccc(NC(=N)NC(=N)N)c2)c1`: the logP is 1.82.
